Source: PubChem BioAssay (NCI)
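A five-concentration, 48-hour dose response in 96-well plates underlies each endpoint, interpolated linearly between surrounding concentrations. Here, GI50 denotes the concentration required for 50% inhibition of growth. The concentration for full growth arrest is given as TGI.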

Columns and labels:
Experiment in all cases: inhibition of tumour cell growth, NCI panel, 48 h
SNB-75 CNS = system: SNB-75 CNS
BT-549 breast = system: BT-549 breast
OVCAR-8 ovarian = system: OVCAR-8 ovarian
UACC-257 melanoma = system: UACC-257 melanoma
MCF7 breast = system: MCF7 breast
UO-31 renal = system: UO-31 renal
KM12 colon = system: KM12 colon
EKVX NSCLC = system: EKVX NSCLC
SK-OV-3 ovarian = system: SK-OV-3 ovarian
NCI-H522 lung = system: NCI-H522 lung
SR leukemia = system: SR leukemia
COLO 205 colon = system: COLO 205 colon
U251 CNS = system: U251 CNS
SF-539 CNS = system: SF-539 CNS
NCI-H460 lung = system: NCI-H460 lung
HCC-2998 colon = system: HCC-2998 colon
SW-620 colon = system: SW-620 colon
OVCAR-5 ovarian = system: OVCAR-5 ovarian
K-562 leukemia = system: K-562 leukemia
IGROV1 ovarian = system: IGROV1 ovarian
A549 NSCLC = system: A549 NSCLC
SF-268 CNS = system: SF-268 CNS
HL-60(TB) leukemia = system: HL-60(TB) leukemia
TK-10 renal = system: TK-10 renal
MOLT-4 leukemia = system: MOLT-4 leukemia
HCT-116 colon = system: HCT-116 colon
HCT-15 colon = system: HCT-15 colon
RPMI-8226 leukemia = system: RPMI-8226 leukemia
ACHN renal = system: ACHN renal
LOX IMVI melanoma = system: LOX IMVI melanoma
MDA-MB-231 breast = system: MDA-MB-231 breast
OVCAR-4 ovarian = system: OVCAR-4 ovarian
RXF 393 renal = system: RXF 393 renal
HS 578T breast = system: HS 578T breast
OVCAR-3 ovarian = system: OVCAR-3 ovarian
NCI-H226 lung = system: NCI-H226 lung
DU-145 prostate = system: DU-145 prostate
HOP-62 NSCLC = system: HOP-62 NSCLC
SN12C renal = system: SN12C renal
SK-MEL-2 melanoma = system: SK-MEL-2 melanoma
HOP-92 NSCLC = system: HOP-92 NSCLC
A498 renal = system: A498 renal
PC-3 prostate = system: PC-3 prostate
CAKI-1 renal = system: CAKI-1 renal
MDA-MB-435 = system: MDA-MB-435
SNB-19 CNS = system: SNB-19 CNS
CCRF-CEM leukemia = system: CCRF-CEM leukemia
UACC-62 melanoma = system: UACC-62 melanoma
SK-MEL-28 melanoma = system: SK-MEL-28 melanoma
SK-MEL-5 melanoma = system: SK-MEL-5 melanoma
NCI-H23 lung = system: NCI-H23 lung
M14 melanoma = system: M14 melanoma
786-0 renal = system: 786-0 renal
NCI/ADR-RES ovarian = system: NCI/ADR-RES ovarian
MALME-3M melanoma = system: MALME-3M melanoma

Question: With `O=C(/C=C/C12c3ccccc3C(c3ccccc31)C1C(=O)NC(=O)C12)c1ccc(Cl)cc1` (stereo not given) as the molecule, how does the GI50 (SNB-75 CNS) read?
Answer: 1100 nM

Question: What about the TGI (SNB-75 CNS) of the same molecule?
Answer: 2320 nM

Question: What about the GI50 (BT-549 breast) of the same molecule?
Answer: 1340 nM

Question: And the TGI (BT-549 breast)?
Answer: 2690 nM

Question: What about the GI50 (OVCAR-8 ovarian) of the same molecule?
Answer: 1130 nM

Question: What about the TGI (OVCAR-8 ovarian) of the same molecule?
Answer: 2660 nM

Question: And the GI50 (UACC-257 melanoma)?
Answer: 1560 nM

Question: And the TGI (UACC-257 melanoma)?
Answer: 3450 nM

Question: And the GI50 (MCF7 breast)?
Answer: 1340 nM

Question: What about the TGI (MCF7 breast) of the same molecule?
Answer: 4050 nM

Question: And the GI50 (UO-31 renal)?
Answer: 1280 nM

Question: And the TGI (UO-31 renal)?
Answer: 2560 nM

Question: And the GI50 (KM12 colon)?
Answer: 2140 nM

Question: What about the TGI (KM12 colon) of the same molecule?
Answer: 5440 nM

Question: And the GI50 (EKVX NSCLC)?
Answer: 1430 nM

Question: And the TGI (EKVX NSCLC)?
Answer: 2870 nM

Question: And the GI50 (SK-OV-3 ovarian)?
Answer: 1850 nM

Question: And the TGI (SK-OV-3 ovarian)?
Answer: 3870 nM

Question: And the GI50 (NCI-H522 lung)?
Answer: 1460 nM

Question: What about the TGI (NCI-H522 lung) of the same molecule?
Answer: 3300 nM

Question: And the GI50 (SR leukemia)?
Answer: 2150 nM

Question: And the TGI (SR leukemia)?
Answer: > 100000 nM

Question: And the GI50 (COLO 205 colon)?
Answer: 1910 nM

Question: What about the TGI (COLO 205 colon) of the same molecule?
Answer: 3770 nM

Question: And the GI50 (U251 CNS)?
Answer: 1520 nM

Question: And the TGI (U251 CNS)?
Answer: 2990 nM

Question: What about the GI50 (SF-539 CNS) of the same molecule?
Answer: 1510 nM

Question: And the TGI (SF-539 CNS)?
Answer: 2860 nM

Question: And the GI50 (NCI-H460 lung)?
Answer: 1800 nM

Question: And the TGI (NCI-H460 lung)?
Answer: 4310 nM

Question: What about the GI50 (HCC-2998 colon) of the same molecule?
Answer: 1690 nM

Question: What about the TGI (HCC-2998 colon) of the same molecule?
Answer: 3370 nM

Question: And the GI50 (SW-620 colon)?
Answer: 1890 nM

Question: And the TGI (SW-620 colon)?
Answer: 4260 nM

Question: What about the GI50 (OVCAR-5 ovarian) of the same molecule?
Answer: 1580 nM

Question: And the TGI (OVCAR-5 ovarian)?
Answer: 3350 nM

Question: What about the GI50 (K-562 leukemia) of the same molecule?
Answer: 1990 nM

Question: What about the TGI (K-562 leukemia) of the same molecule?
Answer: > 100000 nM

Question: What about the GI50 (IGROV1 ovarian) of the same molecule?
Answer: 1670 nM

Question: And the TGI (IGROV1 ovarian)?
Answer: 3400 nM

Question: What about the GI50 (A549 NSCLC) of the same molecule?
Answer: 2400 nM

Question: What about the TGI (A549 NSCLC) of the same molecule?
Answer: 10100 nM

Question: And the GI50 (SF-268 CNS)?
Answer: 1990 nM

Question: What about the TGI (SF-268 CNS) of the same molecule?
Answer: 5310 nM

Question: What about the GI50 (HL-60(TB) leukemia) of the same molecule?
Answer: 1470 nM

Question: What about the TGI (HL-60(TB) leukemia) of the same molecule?
Answer: 8860 nM

Question: What about the GI50 (TK-10 renal) of the same molecule?
Answer: 1920 nM

Question: What about the TGI (TK-10 renal) of the same molecule?
Answer: 3520 nM

Question: What about the GI50 (MOLT-4 leukemia) of the same molecule?
Answer: 1700 nM

Question: And the TGI (MOLT-4 leukemia)?
Answer: 15500 nM

Question: What about the GI50 (HCT-116 colon) of the same molecule?
Answer: 1230 nM

Question: What about the TGI (HCT-116 colon) of the same molecule?
Answer: 2610 nM

Question: What about the GI50 (HCT-15 colon) of the same molecule?
Answer: 1470 nM

Question: What about the TGI (HCT-15 colon) of the same molecule?
Answer: 4070 nM

Question: What about the GI50 (RPMI-8226 leukemia) of the same molecule?
Answer: 1660 nM

Question: What about the TGI (RPMI-8226 leukemia) of the same molecule?
Answer: 4500 nM

Question: What about the GI50 (ACHN renal) of the same molecule?
Answer: 1650 nM

Question: What about the TGI (ACHN renal) of the same molecule?
Answer: 3020 nM

Question: And the GI50 (LOX IMVI melanoma)?
Answer: 1600 nM

Question: And the TGI (LOX IMVI melanoma)?
Answer: 3000 nM

Question: What about the GI50 (MDA-MB-231 breast) of the same molecule?
Answer: 1880 nM

Question: And the TGI (MDA-MB-231 breast)?
Answer: 4300 nM

Question: What about the GI50 (OVCAR-4 ovarian) of the same molecule?
Answer: 1420 nM

Question: What about the TGI (OVCAR-4 ovarian) of the same molecule?
Answer: 2760 nM

Question: What about the GI50 (RXF 393 renal) of the same molecule?
Answer: 1200 nM

Question: And the TGI (RXF 393 renal)?
Answer: 2560 nM

Question: And the GI50 (HS 578T breast)?
Answer: 1940 nM

Question: And the TGI (HS 578T breast)?
Answer: 7220 nM

Question: And the GI50 (OVCAR-3 ovarian)?
Answer: 1630 nM

Question: And the TGI (OVCAR-3 ovarian)?
Answer: 3260 nM

Question: And the GI50 (NCI-H226 lung)?
Answer: 1920 nM

Question: And the TGI (NCI-H226 lung)?
Answer: 5000 nM

Question: And the GI50 (DU-145 prostate)?
Answer: 1670 nM

Question: What about the TGI (DU-145 prostate) of the same molecule?
Answer: 3260 nM

Question: And the GI50 (HOP-62 NSCLC)?
Answer: 1690 nM

Question: What about the TGI (HOP-62 NSCLC) of the same molecule?
Answer: 3390 nM

Question: What about the GI50 (SN12C renal) of the same molecule?
Answer: 1560 nM

Question: What about the TGI (SN12C renal) of the same molecule?
Answer: 3260 nM

Question: And the GI50 (SK-MEL-2 melanoma)?
Answer: 1810 nM

Question: What about the TGI (SK-MEL-2 melanoma) of the same molecule?
Answer: 3710 nM

Question: What about the GI50 (HOP-92 NSCLC) of the same molecule?
Answer: 1320 nM

Question: And the TGI (HOP-92 NSCLC)?
Answer: 2860 nM

Question: What about the GI50 (A498 renal) of the same molecule?
Answer: 1280 nM

Question: What about the TGI (A498 renal) of the same molecule?
Answer: 2600 nM

Question: What about the GI50 (PC-3 prostate) of the same molecule?
Answer: 1390 nM

Question: What about the TGI (PC-3 prostate) of the same molecule?
Answer: 2780 nM

Question: What about the GI50 (CAKI-1 renal) of the same molecule?
Answer: 1240 nM

Question: What about the TGI (CAKI-1 renal) of the same molecule?
Answer: 2520 nM

Question: And the GI50 (MDA-MB-435)?
Answer: 1680 nM

Question: What about the TGI (MDA-MB-435) of the same molecule?
Answer: 3500 nM

Question: And the GI50 (SNB-19 CNS)?
Answer: 1580 nM

Question: What about the TGI (SNB-19 CNS) of the same molecule?
Answer: 3040 nM

Question: What about the GI50 (CCRF-CEM leukemia) of the same molecule?
Answer: 1660 nM

Question: And the TGI (CCRF-CEM leukemia)?
Answer: > 100000 nM

Question: What about the GI50 (UACC-62 melanoma) of the same molecule?
Answer: 1400 nM

Question: And the TGI (UACC-62 melanoma)?
Answer: 2770 nM

Question: What about the GI50 (SK-MEL-28 melanoma) of the same molecule?
Answer: 1800 nM

Question: And the TGI (SK-MEL-28 melanoma)?
Answer: 3370 nM

Question: And the GI50 (SK-MEL-5 melanoma)?
Answer: 1700 nM

Question: And the TGI (SK-MEL-5 melanoma)?
Answer: 3080 nM

Question: What about the GI50 (NCI-H23 lung) of the same molecule?
Answer: 1780 nM

Question: What about the TGI (NCI-H23 lung) of the same molecule?
Answer: 3830 nM

Question: What about the GI50 (M14 melanoma) of the same molecule?
Answer: 1650 nM

Question: What about the TGI (M14 melanoma) of the same molecule?
Answer: 3290 nM

Question: And the GI50 (786-0 renal)?
Answer: 1730 nM

Question: And the TGI (786-0 renal)?
Answer: 3160 nM

Question: What about the GI50 (NCI/ADR-RES ovarian) of the same molecule?
Answer: 1770 nM

Question: What about the TGI (NCI/ADR-RES ovarian) of the same molecule?
Answer: 4930 nM

Question: What about the GI50 (MALME-3M melanoma) of the same molecule?
Answer: 1510 nM

Question: And the TGI (MALME-3M melanoma)?
Answer: 2880 nM
